Converted amounts (≈) assume the structure as drawn.
Assays:
Format in all cases: functional
KB = experiment: Cytotoxicity against human KB cells by NCI method; conditions: read-out: ED50 (the source's name)
P388 [1] = experiment: In vivo antitumor activity against mouse P388 cells at 0.75 mg/kg relative to control
P388 [2] = experiment: In vivo antitumor activity against mouse P388 cells at 0.38 mg/kg relative to control
P388 [3] = experiment: In vivo antitumor activity against mouse P388 cells at 1.5 mg/kg relative to control
P388 [4] = experiment: In vivo antitumor activity against mouse P388 cells at 3.0 mg/kg relative to control
P388 [5] = experiment: In vivo antitumor activity against mouse P388 cells at 1.25 mg/kg relative to control
P388 [6] = experiment: In vivo antitumor activity against mouse P388 cells at 2.5 mg/kg relative to control
P388 [7] = experiment: In vivo antitumor activity against mouse P388 cells at 0.63 mg/kg relative to control
P388 [8] = experiment: In vivo antitumor activity against mouse P388 cells at 0.31 mg/kg relative to control

Compound | EC50 (KB) [ng/mL] | T/C (P388 [1]) [%] | T/C (P388 [2]) [%] | T/C (P388 [3]) [%] | T/C (P388 [4]) [%] | T/C (P388 [5]) [%] | T/C (P388 [6]) [%] | T/C (P388 [7]) [%] | T/C (P388 [8]) [%]
CC(C)=CC(=O)O[C@@H]1[C@H]2C(C)=C[C@H](O)[C@H](O)[C@]2(C)[C@H]2[C@]3(O)OC[C@@]24[C@@H]1OC(=O)C[C@H]4[C@@H](C)[C@H]3O | 3 (≈ 6.27 nM) | 160 | 142 | 133 | 133 | – | – | – | –
CC(C)=CC(=O)O[C@@H]1[C@H]2C(C)=CC(=O)[C@H](O)[C@]2(C)[C@H]2[C@]3(O)OC[C@@]24[C@@H]1OC(=O)C[C@H]4[C@@H](C)[C@H]3O | 3 (≈ 6.3 nM) | – | – | – | – | 133 | 136 | 176 | 145
CC1=CC(=O)[C@@H](O)[C@]2(C)[C@H]3[C@@]4(O)OC[C@@]35[C@@H](C[C@@H]12)OC(=O)C[C@H]5[C@@H](C)[C@H]4O [CHAPARRINONE] | 25 (≈ 66.1 nM) | – | – | – | – | – | – | – | –
